As a reminder, the Ki is a dissociation constant, usually derived from enzyme kinetics or from competition with a known ligand.

Where a name gives a salt, the structure may show the parent alone.

In one series the target is T1, human α1b-adrenoceptor (Homo sapiens, UniProt P35368).
T1 construct: expressed in transfected cells
T1 sequence (P35368 1-520): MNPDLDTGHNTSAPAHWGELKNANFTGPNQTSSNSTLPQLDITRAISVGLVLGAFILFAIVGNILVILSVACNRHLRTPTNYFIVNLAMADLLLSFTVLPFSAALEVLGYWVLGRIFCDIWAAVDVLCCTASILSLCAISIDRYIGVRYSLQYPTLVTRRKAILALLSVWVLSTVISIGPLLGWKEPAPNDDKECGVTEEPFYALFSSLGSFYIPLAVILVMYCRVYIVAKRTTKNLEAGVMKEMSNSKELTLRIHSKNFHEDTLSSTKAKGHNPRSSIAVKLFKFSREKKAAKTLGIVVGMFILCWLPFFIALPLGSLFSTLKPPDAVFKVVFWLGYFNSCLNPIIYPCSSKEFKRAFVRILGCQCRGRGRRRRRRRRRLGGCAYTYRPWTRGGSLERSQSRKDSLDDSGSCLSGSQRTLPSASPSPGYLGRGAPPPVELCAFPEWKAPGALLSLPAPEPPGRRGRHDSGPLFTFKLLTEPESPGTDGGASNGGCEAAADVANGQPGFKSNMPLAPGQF
The series is described as follows: [3H]Prazosin binding, cloned human α1b-adrenoceptor in CHO cell membranes. To be noted: CHO membranes; read-out: Affinity (Ki) α1b, human cloned receptors. The protocol:
(§1) Binding to cloned human α1-adrenoceptor subtypes was performed in membranes from CHO cells (Chinese hamster ovary cells) transfected by electroporation with DNA expressing the gene encoding each α1-adrenoceptor subtype. […] The incubation was stopped by addition of ice-cold Tris buffer and rapid filtration through 0.2% polyethyleneimine-pretreated Whatman GF/B or Schleicher & Schuell GF52 filters.
(§2) Data are expressed as mean Ki. All patents and other references cited herein are incorporated by reference in their entirety.

Another series deals with T2, human α1d-adrenoceptor (Homo sapiens, UniProt P25100).
T2 construct: expressed in transfected cells
T2 sequence (P25100 1-572): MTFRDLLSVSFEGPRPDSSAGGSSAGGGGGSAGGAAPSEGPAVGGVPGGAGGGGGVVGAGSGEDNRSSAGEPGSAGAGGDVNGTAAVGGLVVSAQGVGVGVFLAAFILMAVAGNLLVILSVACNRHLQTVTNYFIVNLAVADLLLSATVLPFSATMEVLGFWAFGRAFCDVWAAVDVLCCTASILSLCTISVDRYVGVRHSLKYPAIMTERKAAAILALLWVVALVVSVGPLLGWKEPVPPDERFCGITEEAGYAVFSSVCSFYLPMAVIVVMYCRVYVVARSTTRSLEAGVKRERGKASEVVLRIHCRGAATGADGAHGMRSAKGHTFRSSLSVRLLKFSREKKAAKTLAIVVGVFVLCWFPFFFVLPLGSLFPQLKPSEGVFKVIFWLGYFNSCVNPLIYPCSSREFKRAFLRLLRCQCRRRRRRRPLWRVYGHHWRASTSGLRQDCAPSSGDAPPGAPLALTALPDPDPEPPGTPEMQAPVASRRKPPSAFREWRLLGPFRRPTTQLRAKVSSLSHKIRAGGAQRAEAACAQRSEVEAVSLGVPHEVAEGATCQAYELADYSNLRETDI
The series is described as follows: [3H]Prazosin binding, cloned human α1d-adrenoceptor in CHO cell membranes. The conditions noted are these: read-out: Affinity (Ki) α1d, human cloned receptors. On the procedure:
as §1, §2

A further series concerns the target T3, human α1a-adrenoceptor (Homo sapiens, UniProt P35348).
T3 sequence (P35348 1-466): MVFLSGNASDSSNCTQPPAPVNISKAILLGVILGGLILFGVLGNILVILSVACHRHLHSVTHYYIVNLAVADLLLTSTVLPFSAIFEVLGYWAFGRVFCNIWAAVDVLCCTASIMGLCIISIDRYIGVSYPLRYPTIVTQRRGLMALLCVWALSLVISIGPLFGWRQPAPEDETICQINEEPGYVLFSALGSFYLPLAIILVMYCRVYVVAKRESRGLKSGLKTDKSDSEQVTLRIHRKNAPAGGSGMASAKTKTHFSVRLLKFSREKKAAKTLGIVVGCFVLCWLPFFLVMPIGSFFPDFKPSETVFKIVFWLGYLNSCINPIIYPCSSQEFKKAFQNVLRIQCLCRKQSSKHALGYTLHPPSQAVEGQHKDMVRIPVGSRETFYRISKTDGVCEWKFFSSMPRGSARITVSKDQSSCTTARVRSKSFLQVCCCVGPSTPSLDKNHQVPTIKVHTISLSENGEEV
Description: biochemical.

Another series addresses T4, bovine α1a-adrenoceptor (Bos taurus, UniProt P18130).
T4 construct: expressed in transfected cells; host or cells: COS-7 cells (transient), membranes
T4 sequence (P18130 1-466): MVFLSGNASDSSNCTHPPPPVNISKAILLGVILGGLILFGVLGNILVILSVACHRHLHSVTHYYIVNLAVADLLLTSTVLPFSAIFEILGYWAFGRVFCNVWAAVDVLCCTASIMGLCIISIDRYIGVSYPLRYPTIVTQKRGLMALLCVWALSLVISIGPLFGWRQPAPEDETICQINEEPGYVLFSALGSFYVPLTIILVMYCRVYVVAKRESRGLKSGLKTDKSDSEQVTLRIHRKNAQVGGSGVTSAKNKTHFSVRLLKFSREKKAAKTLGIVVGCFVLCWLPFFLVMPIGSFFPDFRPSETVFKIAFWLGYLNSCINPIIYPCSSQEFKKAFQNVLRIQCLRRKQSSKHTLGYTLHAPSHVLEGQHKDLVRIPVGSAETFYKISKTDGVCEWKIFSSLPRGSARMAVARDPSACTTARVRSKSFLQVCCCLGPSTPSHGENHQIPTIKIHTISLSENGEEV
Description: [3H]Prazosin binding, bovine α1a-adrenoceptor in COS-7 cell membranes. The protocol: The incubation was stopped by addition of ice-cold Tris buffer and rapid filtration through 0.2% polyethyleneimine pretreated Whatman GF/B or Schleicher & Schuell GF52 filters.
as §2

The next series has as its system anaesthetised rats. The series is described as follows: Intracavernous and blood pressure recording in rats. It counts as in vivo, rat. The conditions noted are these: for decrease of blood pressure: after injection of 1000 μg/kg intracavernous; for effect on ICP (in words): intracavernous injection; for hypotension (in words, FIG. 1): marked hypotension defined as decrease of blood pressure equal to or higher than 40%. On the procedure: Rats were anaesthetised by an intraperitoneal injection of urethane (1.5 g/kg in sterile saline) and placed on an homeothermic blanket. Their temperature was maintained at 37° C. Rats were tracheotomized to facilitate spontaneous breathing and to prevent aspiration of saliva. A catheter filled with heparinized saline (25 IU/ml) was placed into the carotid to record mean blood pressure (BP, mmHg). The penis was desheathed and the corpora cavernosa were exposed. A 25-gauge stainless-steel needle was inserted into one corpus cavernosum to record intracavernous pressure (ICP in mmHg). […] Pressure catheters were connected to pressure transducers (Model 750, Elcomatic Ltd, Glasgow, UK).
Following a resting period of 10 minutes, the compound solvent was delivered intracavernously (50 μl/injection). Then, increasing doses of one compound were injected every ten minutes by the same route. Five injections (one solvent plus four cumulative doses) were performed in each rat, and five rats were used for the study of one compound. For each injection and for each compound, mean BP averaged over the ten minutes following the injection was measured. The maximal ICP value reached during the ten-minute period following an injection was also recorded. In these experiments, all the compounds tested were dissolved and diluted in propylene glycol-Sorensen solvent.

Series [1] concerns anaesthetised dogs. The conditions noted are these: dog, in vivo.
Description: (§3) Male beagle dogs were anaesthetised with pentobarbital sodium (i.v. Nembutal, 35 mg/kg for induction and 4 mg/kg/h for maintenance) and intubated with an endotracheal cuffed tube to facilitate free ventilation. A collateral of the left femoral vein was cannulated with a PE catheter for infusion of the anaesthetic. Systemic BP was monitored via a Mikro-tip 6F (Millar Instruments) pressure transducer introduced into the aortic arch through the right common carotid artery. ICP was measured by means of a 20-gauge needle placed into the left or right corpus cavernosum and the same needle was used for intracavernous injection of the drugs. The needle was attached to a catheter filled with heparinized saline (25 IU/mL). […] The compounds to be tested were injected intracavernously in a volume of 0.5 ml and, after each injection, the needle was flushed with 0.5 ml of saline. The vehicles for compound dissolution were tested before the first dose of each drug. The compounds were administered in a cumulative way, with a 30-minute interval between doses. ICP (mmHg) was measured at the peak effect after the administration of the compounds. The duration of tumescence (DT, min) was measured from the beginning of the rise of ICP over its basal value up to the return to baseline. The systolic blood pressure and diastolic blood pressure (mmHg) were measured at the peak effect after the administration of compounds, in order to evaluate the effects of the compounds on BP independently from the effects on ICP. Moreover, the systolic blood pressure was measured at the time of maximal ICP value after intracavernous injection, to evaluate the ICP/BP ratios. […] The data were reported as mean ±s.e. of the mean, or percent variation (±s.e.) of the basal values.
For series [2], the system named is anaesthetised dogs. The series is described as follows: Intracavernous and blood pressure recording in dogs. The conditions noted are these: for increase of ICP in comparison with basal ICP values: 1000 μg/kg (1000 μg given for prazosin, phentolamine) intracavernous; for effect on ICP (in words): intracavernous injection.
Description: as §3

Regarding `COc1cc2nc(N3CCN(C(=O)COc4c(OC)cccc4C(C)C)C4CCCCC43)nc(N)c2cc1OC` (racemic) [Example 4, 4-Amino-6,7-dimethoxy-2-[(±)-4-(2-isopropyl-6-methoxyphenoxyacetyl)-cis-octahydro-1-quinoxalinyl]quinazoline hydrochloride.2.5H2O], at human α1b-adrenoceptor, the inhibition constant Ki was determined as 0.16 nM.

For `COc1cc2nc(N3CCN(C(=O)c4ccc(C)o4)C4CCCCC43)nc(N)c2cc1OC` (racemic) [Example 5, 4-Amino-6,7-dimethoxy-2-[(±)-4-(5-methyl-2-furoyl)-cis-octahydro-1-quinoxalinyl]-quinazoline hydrochloride.2.5H2O], the Ki at human α1b-adrenoceptor came out at 0.24 nM.

Take `COc1cc2nc(N3CCN(C(=O)OCc4ccccc4)C4CCCCC43)nc(N)c2cc1OC` (racemic) [Example 7, 4-Amino-6,7-dimethoxy-2-[(±)-4-benzyloxycarbonyl-cis-octahydro-1-quinoxalinyl]-quinazoline hydrochloride.0.75H2O]: the inhibition constant Ki at human α1b-adrenoceptor worked out at 0.65 nM.

As for `COc1cc2nc(N3CCN(C(=O)c4ccco4)[C@H](C(=O)NC(C)(C)C)C3)nc(N)c2cc1OC` [Compound C, 4-Amino-6,7-dimethoxy-2-[(3S)-3-(t-butylcarbamoyl)-4-(2-furoyl)-1-piperazinyl]-quinazoline], the Ki was determined as 1.76 nM on human α1b-adrenoceptor, 25.1 nM on human α1d-adrenoceptor and 94.1 nM on human α1a-adrenoceptor.

`Cc1ccc(N(CC2=NCCN2)c2cccc(O)c2)cc1` [Phentolamine] yielded a Ki on bovine α1a-adrenoceptor of 3.22 nM. The BP was determined as 79.8 ± 7.3 mmHg in the series with anaesthetised rats (10 μg/kg intracavernous); 72.2 ± 4.3 mmHg with anaesthetised rats (30 μg/kg intracavernous); 61.1 ± 7.0 mmHg in the series on anaesthetised rats (100 μg/kg intracavernous); 63.0 ± 2.2 mmHg in the series on anaesthetised rats (300 μg/kg intracavernous); 59.8 ± 3.6 mmHg with anaesthetised rats (1000 μg/kg intracavernous). Besides, the ICP was found to be 12.6 ± 1.7 mmHg in the series on anaesthetised rats (10 μg/kg intracavernous); 10.1 ± 1.4 mmHg in the series with anaesthetised rats (30 μg/kg intracavernous); 10.5 ± 1.4 mmHg in the series with anaesthetised rats (100 μg/kg intracavernous); 12.5 ± 2.3 mmHg in the series with anaesthetised rats (300 μg/kg intracavernous); 20.6 ± 2.1 mmHg in the series with anaesthetised rats (1000 μg/kg intracavernous); 24.0 ± 0.0 mmHg in the series with anaesthetised dogs [2] (10 μg/kg intracavernous). The ICP in the series with anaesthetised dogs [2] (30 μg/kg intracavernous) is given as 20.0 ± 2.3 mmHg; with anaesthetised dogs [2] (300 μg/kg intracavernous) it was 16.0 ± 2.3 mmHg; in the series with anaesthetised dogs [2] (1000 μg/kg intracavernous), 62.7 ± 24.3 mmHg. For the same compound, in the series with anaesthetised rats, the “decrease of blood pressure” value was found to be 30%. Moreover, the “effect on ICP (in words)” value with anaesthetised rats is “did not modify ICP up to 300 μg/kg”; with anaesthetised dogs [2] it was “increased ICP at doses that induced substained hypotension”. In addition, the “hypotension (in words, FIG. 1)” value with anaesthetised rats was “marked hypotension”. The “hypotension (in words)” value in the series with anaesthetised dogs [1] is given as “relevant hypotension”. Moreover, in the series with anaesthetised dogs [2], the “increase of ICP in comparison with basal ICP values” was determined as 43 mmHg. Besides, the “DT (duration of tumescence)” value with anaesthetised dogs [2] (1000 μg/kg intracavernous) is recorded as 4.2 ± 2.1 min.

Consider `COc1cc2nc(N3CCN(C(=O)c4ccco4)CC3)nc(N)c2cc1OC` [Prazosin], for which the BP with anaesthetised rats (10 μg/kg intracavernous) was 59.4 ± 7.7 mmHg; with anaesthetised rats (30 μg/kg intracavernous), 60.0 ± 7.4 mmHg; in the series with anaesthetised rats (100 μg/kg intracavernous), 56.8 ± 7.9 mmHg; in the series on anaesthetised rats (300 μg/kg intracavernous), 41.3 ± 3.0 mmHg; in the series with anaesthetised rats (1000 μg/kg intracavernous) it was 43.7 ± 4.1 mmHg. Besides, the ICP in the series with anaesthetised rats (10 μg/kg intracavernous) was 20.1 ± 6.4 mmHg; in the series with anaesthetised rats (30 μg/kg intracavernous) it was 14.9 ± 3.3 mmHg; in the series on anaesthetised rats (100 μg/kg intracavernous) it was 19.0 ± 6.6 mmHg; in the series on anaesthetised rats (300 μg/kg intracavernous), 18.9 ± 6.8 mmHg; in the series on anaesthetised rats (1000 μg/kg intracavernous), 26.9 ± 3.5 mmHg; in the series with anaesthetised dogs [2] (30 μg/kg intracavernous) it was 25.5 ± 6.3 mmHg. Further, the values for the ICP with anaesthetised dogs [2] (100 μg/kg intracavernous), with anaesthetised dogs [2] (300 μg/kg intracavernous) and with anaesthetised dogs [2] (1000 μg/kg intracavernous) were 27.0 ± 8.7 mmHg, 37.5 ± 5.0 mmHg and 52.5 ± 5.0 mmHg, respectively. For the same compound, the “decrease of blood pressure” value with anaesthetised rats turned out to be 41%. The “effect on ICP (in words)” value in the series with anaesthetised rats is “unable to elicit any ICP increase”; with anaesthetised dogs [2] it was “increased ICP at doses that induced substained hypotension”. Further, the “hypotension (in words, FIG. 1)” value in the series with anaesthetised rats was “marked hypotension”. Also, in the series with anaesthetised dogs [1], the “hypotension (in words)” value is “marked hypotension”. Also, the “decrease of diastolic blood pressure” value in the series on anaesthetised dogs [2] (1000 μg intracavernous) is given as 71 mmHg. The “increase of ICP in comparison with basal ICP values” in the series with anaesthetised dogs [2] was found to be 36 mmHg.
